{"source": "ChEMBL document CHEMBL1145364", "about": "“A novel artemisinin-quinine hybrid with potent antimalarial activity” (Bioorg Med Chem Lett, 2007)", "type_in_all_cases": "functional, organism-based", "key": {"Plasmodium falciparum [1]": {"test_system": "Plasmodium falciparum", "assay": "Antimalarial activity against chloroquine-resistant Plasmodium falciparum FcB1 after 48 hrs by pLDH assay", "conditions": "FcB1, 48 h"}, "Plasmodium falciparum [2]": {"test_system": "Plasmodium falciparum", "assay": "Antimalarial activity against Plasmodium falciparum 3D7 after 48 hrs by pLDH assay", "conditions": "3D7, 48 h"}, "Plasmodium falciparum [3]": {"test_system": "Plasmodium falciparum", "assay": "Antimalarial activity against chloroquine-resistant Plasmodium falciparum FcB1 after 72 hrs by pLDH assay", "conditions": "FcB1, 72 h"}, "Plasmodium falciparum [4]": {"test_system": "Plasmodium falciparum", "assay": "Antimalarial activity against Plasmodium falciparum 3D7 after 72 hrs by pLDH assay", "conditions": "3D7, 72 h"}}, "data": [{"smiles": "C=C[C@H]1CN2CC[C@H]1C[C@H]2[C@H](O)c1ccnc2ccc(OC)cc12", "note": "[QUININE]", "values": [{"measurement": "IC50", "setting": "Plasmodium falciparum [1]", "value": 0.0968, "unit": "µM"}, {"measurement": "IC50", "setting": "Plasmodium falciparum [2]", "value": 0.149, "unit": "µM"}, {"measurement": "IC50", "setting": "Plasmodium falciparum [3]", "value": 0.0753, "unit": "µM"}, {"measurement": "IC50", "setting": "Plasmodium falciparum [4]", "value": 0.0735, "unit": "µM"}]}, {"smiles": "C[C@@H]1CC[C@H]2[C@@H](C)C(=O)O[C@@H]3O[C@@]4(C)CC[C@@H]1[C@]32OO4", "note": "[ARTEMISININ]", "values": [{"measurement": "IC50", "setting": "Plasmodium falciparum [1]", "value": 0.05, "unit": "µM"}, {"measurement": "IC50", "setting": "Plasmodium falciparum [2]", "value": 0.0494, "unit": "µM"}, {"measurement": "IC50", "setting": "Plasmodium falciparum [3]", "value": 0.055, "unit": "µM"}, {"measurement": "IC50", "setting": "Plasmodium falciparum [4]", "value": 0.0455, "unit": "µM"}]}, {"smiles": "COc1ccc2nccc([C@@H](O)C3CC4CCN3CC4CC(=O)O[C@@H]3OC4O[C@]5(C)CCC6[C@H](C)CCC([C@H]3C)[C@@]46OO5)c2c1", "note": "(some centres not stated)", "values": [{"measurement": "IC50", "setting": "Plasmodium falciparum [1]", "value": 0.00959, "unit": "µM"}, {"measurement": "IC50", "setting": "Plasmodium falciparum [2]", "value": 0.00895, "unit": "µM"}, {"measurement": "IC50", "setting": "Plasmodium falciparum [3]", "value": 0.0102, "unit": "µM"}, {"measurement": "IC50", "setting": "Plasmodium falciparum [4]", "value": 0.0104, "unit": "µM"}]}]}
